Experimental data: US9611286B2, “Ruthenium carbon monoxide releasing molecules and uses thereof” (Alfama, Inc., priority 2011, dated 2017)
Entries after “also recorded” stand apart in the source; their conditions may differ.

What was measured:
[1] = Quantification of Ru in tissues (bio-distribution); conditions: liver, kidney, spleen, lung and brain
Experimental: Tricarbonyldichloro(methylthiogalactopyranoside) Ru(II) [Ru(CO)3Cl2(Gal-S-Me)], also referred to herein as Compound 1, was prepared by reacting CORM-2 with methylthiogalactopyranoside (Gal-S-Me) as described herein (see FIG. 2a and Materials and Methods section). The bio-distribution of Compound 1 in tissues was assessed by quantifying the levels of Ru and CO in the host by the method of Vreman et al., Anal Biochem (2005) 341:280-9. Liver, kidney, spleen, lung and brain tissues of non-infected mice (NI) were analyzed one hour after administration of Compound 1 and the control molecule, Compound 2 (FIG. 2b). […] The spleen is an organ that plays a crucial role in erythrophagocytosis, process important for red blood cell turnover, and recycling of iron. Erythrocytes are hydrolyzed by splenic macrophages, where the degradation of hemoglobin occurs, haem is release, and is catabolized by heme oxygenase-1 into biliverdin, carbon monoxide and ferrous iron (Fe^2+).
The tissue samples were weighed and dried at 80° C. overnight followed by 2 or more hours at 120° C. […] The Ru content was analyzed by an inductively coupled plasma-atomic emission spectrometer (ICP-AES) (model Ultima-Horiba Jobin Yvon, Longjumeau, France) using an external Ru standard method.

[2] = tested on: P. berghei ANKA; assay: In vitro replication of P. berghei ANKA; type: cell-based, Plasmodium berghei; conditions: 24 h
Experimental: The data led the inventors to wonder whether Compound 1 could have a direct anti-parasitic effect on P. berghei ANKA and P. falciparum parasites. To this end, the effect of Compound 1 and the anti-malarial chloroquine (CQ) was monitored on the in vitro replication of P. falciparum 3D7 isolate and P. berghei ANKA for 48 h and 24 h, respectively.

[3] = tested on: CD8β; assay: CD8-β-chain mRNA expression in brain by qRT-PCR; type: in vivo, C57BL/6 mice
Experimental: (§1) Mice were sacrificed, when infected control mice presented signs of ECM, and perfused intracardially with PBS to remove circulating RBC and leukocytes from the organs. RNA was isolated from brains, livers and lungs using Trizol Reagent (Invitrogen, Life technologies), according to the manufacturer's recommendation. The synthesis of the first-strand cDNA from the RNA templates was carried out using the Transcriptor First Strand cDNA Synthesis Kit (Roche). RT-PCR reactions were performed in the presence of SYBER Green (SYBER Green PCR master mix, Applied Biosystems) on an ABI PRISM 7500Fast (Applied Biosystem). Oligonucleotides used for the specific amplification of genes include:
(§2) The relative changes in gene expression between experimental and control groups were calculated by the Pfaffl method using hprt as internal control gene. Statistical Analysis

[4] = tested on: VEGF; assay: VEGF protein levels in plasma (ELISA), M-AALI model; type: in vivo; conditions: infected DBA/2 mice
Experimental: Mouse VEGF in plasma samples was determined using a commercial ELISA kit (R&D Systems) following the manufacturer's instructions. The group classification was only performed by the end of each experiment after determining the cause of death.

[5] = tested on: P. berghei ANKA; assay: Parasite r18S (pRBC accumulation) in brain by qRT-PCR; type: in vivo, C57BL/6 mice
Experimental: as §1, §2

In the case of C[SH]([C@@H]1OC(CO)[C@H](O)[C@H](O)C1O)[Ru]([Cl])([Cl])([CH]=O)([CH]=O)[CH]=O (some centres unmarked) [Compound 1, Tricarbonyldichloro(methylthiogalactopyranoside) Ru(II)], the “Ru distribution in organs” value [1] is reported as “marked affinity for the liver; also recorded: No signs of ruthenium are found in the brain”, the “inhibition of in vitro growth” value [2] is reported as “does not inhibit in vitro growth” and the “CD8-β-chain mRNA expression in the brain vs Compound 2-treated mice” value [3] is reported as “significantly lower”. For the same molecule, the “VEGF levels in plasma” value [4] was “significantly lower” and the “pRBC accumulation in the brain vs Compound 2-treated mice” value [5] was “significantly lower”.
